According to US8927559B2, “Quinazolinone-type compounds as CRTH2 antagonists” (Merck Sharp & Dohme Corp., priority 2010, dated 2015):

biological target: T1, CRTH2 receptor (hCRTH2) (Homo sapiens, UniProt Q9Y5Y4); assay: Radioligand binding assay ([3H]PGD2 competition, membranes of HEK-hCRTH2 cell line); settings: 3.0 nM [3H]PGD2, HEK-hCRTH2 membranes, 60 min, room temperature; read-out: Ki
T1 construct: expressed in transfected cells; host or cells: HEK cells (HEK-hCRTH2 cell line), membranes
T1 sequence (Q9Y5Y4 1-395): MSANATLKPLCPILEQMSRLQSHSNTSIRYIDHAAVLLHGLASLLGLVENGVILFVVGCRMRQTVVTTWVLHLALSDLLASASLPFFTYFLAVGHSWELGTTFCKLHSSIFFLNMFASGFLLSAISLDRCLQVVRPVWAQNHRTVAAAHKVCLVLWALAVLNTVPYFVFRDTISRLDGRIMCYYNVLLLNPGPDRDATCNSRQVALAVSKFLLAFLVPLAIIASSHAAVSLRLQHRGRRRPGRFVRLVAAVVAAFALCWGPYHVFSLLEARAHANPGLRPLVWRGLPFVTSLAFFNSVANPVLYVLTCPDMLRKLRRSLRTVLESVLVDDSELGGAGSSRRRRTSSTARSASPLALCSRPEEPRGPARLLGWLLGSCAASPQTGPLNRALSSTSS
Procedure, shortened: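 Membranes (8-20 μg protein) from HEK cells expressing human CRTH2 were incubated with [3H]PGD2 and competitor in 1% DMSO for 60 min at room temperature. Non-specific binding was defined with excess PGD2. Bound radioactivity was separated by filtration and counted by melt-on scintillation.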

| Structure (SMILES) | Ki [nM] |
| --- | --- |
| O=C(O)CCCCc1nc2cc(-c3noc(-c4nc5ccc(F)cc5o4)n3)ccc2c(=O)n1-c1ccc(F)cc1 [Example 248] | 10 to 50 |
| CC(c1ccc(F)cc1)c1nc(-c2ccc3c(=O)n(-c4ccc(F)cc4)c(CCCCC(=O)O)nc3c2)no1 (stereo not drawn) [Example 249] | 10 to 50 |
| C=C(c1ccc(F)cc1)c1cc(-c2ccc3c(=O)n(-c4ccc(F)cc4)c(CCCCC(=O)O)nc3c2)no1 [Example 250] | ≤ 10 |
| N#Cc1ccccc1C1CC(c2ccc3c(=O)n(-c4ccc(F)cc4)c(CCCCC(=O)O)nc3c2)=NO1 (stereo not drawn) [Example 251] | ≤ 10 |
| CC1(c2ccncc2)CC(c2ccc3c(=O)n(-c4ccc(F)cc4)c(CCCCC(=O)O)nc3c2)=NO1 (stereo not drawn) [Example 252] | ≤ 10 |
| CC1(c2cccnc2)CC(c2ccc3c(=O)n(-c4ccc(F)cc4)c(CCCCC(=O)O)nc3c2)=NO1 (stereo not drawn) [Example 253] | ≤ 10 |
| CCCC1(c2ccccc2)CC(c2ccc3c(=O)n(-c4ccc(F)cc4)c(CCCCC(=O)O)nc3c2)=NO1 (stereo not drawn) [Example 254] | ≤ 10 |
| CCCCC1(c2ccccc2)CC(c2ccc3c(=O)n(-c4ccc(F)cc4)c(CCCCC(=O)O)nc3c2)=NO1 (stereo not drawn) [Example 255] | ≤ 10 |
| CC[C@@](O)(c1ccc(F)cc1)c1cc(-c2ccc3c(=O)n(-c4ccc(F)cc4)c(CCCCC(=O)O)nc3c2)no1 [Example 256] | ≤ 10 |
| CC[C@](O)(c1ccc(F)cc1)c1cc(-c2ccc3c(=O)n(-c4ccc(F)cc4)c(CCCCC(=O)O)nc3c2)no1 [Example 257] | ≤ 10 |
| C[C@@](O)(c1ccc(F)cc1)c1cc(-c2ccc3c(=O)n(-c4ccc(F)cc4)c(CCCCC(=O)O)nc3c2)no1 [Example 258] | 10 to 50 |
| C[C@](O)(c1ccc(F)cc1)c1cc(-c2ccc3c(=O)n(-c4ccc(F)cc4)c(CCCCC(=O)O)nc3c2)no1 [Example 259] | 10 to 50 |
| CC(c1ccc(F)cc1)c1cc(-c2ccc3c(=O)n(-c4ccc(F)cc4)c(CCCCC(=O)O)nc3c2)no1 (stereo not drawn) [Example 260] | ≤ 10 |
| CCC(c1ccc(F)cc1)c1cc(-c2ccc3c(=O)n(-c4ccc(F)cc4)c(CCCCC(=O)O)nc3c2)no1 (stereo not drawn) [Example 261] | ≤ 10 |
| CC(c1ccc(F)cc1)C1(C)CC(c2ccc3c(=O)n(-c4ccc(F)cc4)c(CCCCC(=O)O)nc3c2)=NO1 (stereo not drawn) [Example 262] | ≤ 10 |
| C[C@H](c1ccc(F)cc1)c1cc(-c2ccc3c(=O)n(-c4ccc(F)cc4)c(CCCCC(=O)O)nc3c2)no1 [Example 263] | ≤ 10 |
| C[C@@H](c1ccc(F)cc1)c1cc(-c2ccc3c(=O)n(-c4ccc(F)cc4)c(CCCCC(=O)O)nc3c2)no1 [Example 264] | ≤ 10 |
| C[C@@H](O)c1cc(-c2ccc3c(=O)n(-c4ccc(F)cc4)c(CCCCC(=O)O)nc3c2)no1 [Example 265] | 10 to 50 |
| C[C@@H](OCc1ccccc1)c1cc(-c2ccc3c(=O)n(-c4ccc(F)cc4)c(CCCCC(=O)O)nc3c2)no1 [Example 267] | 10 to 50 |
| C[C@H](Oc1ccc(F)cc1)c1cc(-c2ccc3c(=O)n(-c4ccc(F)cc4)c(CCCCC(=O)O)nc3c2)no1 [Example 268] | ≤ 10 |
| O=C(O)CCCCc1nc2cc(-c3cc(COCc4cc(F)cc(F)c4)on3)ccc2c(=O)n1-c1ccc(F)cc1 [Example 269] | ≤ 10 |
| O=C(O)CCCCc1nc2cc(-c3cc(COCc4ccc(F)c(F)c4)on3)ccc2c(=O)n1-c1ccc(F)cc1 [Example 270] | ≤ 10 |
| O=C(O)CCCCc1nc2cc(-c3cc(COCc4cc(F)cc(Cl)c4)on3)ccc2c(=O)n1-c1ccc(F)cc1 [Example 271] | ≤ 10 |

| Structure (SMILES) | Ki [nM] |
| --- | --- |
| O=C(O)CCCCc1nc2cc(-c3cc(COCc4ccc(F)cc4F)on3)ccc2c(=O)n1-c1ccc(F)cc1 [Example 272] | ≤ 10 |
| C[C@@H](OCc1cccc(F)c1)c1cc(-c2ccc3c(=O)n(-c4ccc(F)cc4)c(CCCCC(=O)O)nc3c2)no1 [Example 273] | ≤ 10 |
| C[C@@H](OCc1ccc(F)c(F)c1)c1cc(-c2ccc3c(=O)n(-c4ccc(F)cc4)c(CCCCC(=O)O)nc3c2)no1 [Example 274] | 10 to 50 |
| O=C(O)CCCCc1nc2cc(-c3cc(COCc4cc(F)ccc4F)on3)ccc2c(=O)n1-c1ccc(F)cc1 [Example 275] | ≤ 10 |
| O=C(O)CCCCc1nc2cc(-c3cc(COCc4cccc(F)c4)on3)ccc2c(=O)n1-c1ccc(F)cc1 [Example 276] | ≤ 10 |
| O=C(O)CCCCc1nc2cc(-c3cc(COCc4ccccc4)on3)ccc2c(=O)n1-c1ccc(F)cc1 [Example 277] | 10 to 50 |
| O=C(O)CCCCc1nc2cc(-c3cc(COCc4ccc(F)cc4)on3)ccc2c(=O)n1-c1ccc(F)cc1 [Example 278] | 10 to 50 |
| O=C(O)CCCCc1nc2cc(-c3cc(COCc4ccccc4F)on3)ccc2c(=O)n1-c1ccc(F)cc1 [Example 279] | ≤ 10 |
| O=C(O)CCCCc1nc2cc(-c3cc(COCc4ccc(-c5ccccc5)cc4)on3)ccc2c(=O)n1-c1ccc(F)cc1 [Example 280] | 10 to 50 |
| O=C(O)CCCCc1nc2cc(-c3cc(COCc4cccc(-c5ccccc5)c4)on3)ccc2c(=O)n1-c1ccc(F)cc1 [Example 281] | 10 to 50 |
| O=C(O)CCCCc1nc2cc(-c3cc(COCc4cccc(-c5ccccc5)c4)on3)ccc2c(=O)n1-c1ccc(F)cc1 [Example 282] | ≤ 10 |
| O=C(O)CCCCc1nc2cc(-c3cc(COCc4cccc5cccnc45)on3)ccc2c(=O)n1-c1ccc(F)cc1 [Example 283] | 10 to 50 |
| O=C(O)CCCCc1nc2cc(-c3cc(COCc4ccnc5ccccc45)on3)ccc2c(=O)n1-c1ccc(F)cc1 [Example 284] | 10 to 50 |
| C[C@@H]1C(c2ccc3c(=O)n(-c4ccc(F)cc4)c(CCCCC(=O)O)nc3c2)=NO[C@@H]1c1ccccc1 [Example 285] | ≤ 10 |
| C[C@H]1C(c2ccc3c(=O)n(-c4ccc(F)cc4)c(CCCCC(=O)O)nc3c2)=NO[C@@H]1c1ccccc1 [Example 286] | ≤ 10 |
| C[C@H]1ON=C(c2ccc3c(=O)n(-c4ccc(F)cc4)c(CCCCC(=O)O)nc3c2)[C@H]1c1ccccc1 [Example 287] | ≤ 10 |
| C[C@]1([C@H](O)c2ccc(F)cc2)CC(c2ccc3c(=O)n(-c4ccc(F)cc4)c(CCCCC(=O)O)nc3c2)=NO1 [Example 288] | 10 to 50 |
| C[C@@]1([C@H](O)c2ccc(F)cc2)CC(c2ccc3c(=O)n(-c4ccc(F)cc4)c(CCCCC(=O)O)nc3c2)=NO1 [Example 289] | ≤ 10 |
| C[C@]1([C@@H](O)c2ccc(F)cc2)CC(c2ccc3c(=O)n(-c4ccc(F)cc4)c(CCCCC(=O)O)nc3c2)=NO1 [Example 290] | ≤ 10 |
| C[C@@]1([C@@H](O)c2ccc(F)cc2)CC(c2ccc3c(=O)n(-c4ccc(F)cc4)c(CCCCC(=O)O)nc3c2)=NO1 [Example 291] | 10 to 50 |
| C[C@]1(Cc2ccc(F)cc2)CC(c2ccc3c(=O)n(-c4ccc(F)cc4)c(CCCCC(=O)O)nc3c2)=NO1 [Example 292] | 10 to 50 |
| C[C@@]1(Cc2ccc(F)cc2)CC(c2ccc3c(=O)n(-c4ccc(F)cc4)c(CCCCC(=O)O)nc3c2)=NO1 [Example 293] | 10 to 50 |
